Measurements taken from the NIST ThermoML archive (doi:10.1021/je700414c).
± gives the expanded uncertainty stated by the source.

Experiment: excess molar enthalpy (molar enthalpy of mixing); xn = mol fraction of the nth substance listed
Conditions: 303.15 K, 101 kPa, Liquid

CNC(C)=O [N-methylacetamide] + Cc1ccc(C)cc1
Conditions	excess molar enthalpy [kcal/mol]
x1 = 0.1224	0.0667 ± 0.00359
x1 = 0.1703	0.0696 ± 0.00382
x1 = 0.2407	0.0705 ± 0.00382
x1 = 0.3474	0.0705 ± 0.00382
x1 = 0.4018	0.0679 ± 0.00382
x1 = 0.4704	0.0624 ± 0.00359
x1 = 0.6138	0.0514 ± 0.00287
x1 = 0.7126	0.0402 ± 0.00239
x1 = 0.7529	0.0366 ± 0.00215
x1 = 0.8617	0.0198 ± 0.00143

CNC(C)=O [N-methylacetamide] + c1ccccc1
Conditions	excess molar enthalpy [kcal/mol]
x1 = 0.0848	0.0511 ± 0.00478
x1 = 0.1579	0.0562 ± 0.00502
x1 = 0.2196	0.0576 ± 0.00526
x1 = 0.2809	0.0564 ± 0.00502
x1 = 0.3924	0.0516 ± 0.00478
x1 = 0.4282	0.0464 ± 0.0043
x1 = 0.4628	0.0421 ± 0.00406
x1 = 0.495	0.0392 ± 0.00382
x1 = 0.5438	0.0344 ± 0.00359
x1 = 0.567	0.0335 ± 0.00359
x1 = 0.6331	0.0294 ± 0.00335
x1 = 0.766	0.0172 ± 0.00263
x1 = 0.8432	0.0124 ± 0.00215
x1 = 0.8931	0.00837 ± 0.00191

CNC=O [N-methylformamide] + Cc1ccc(C)cc1
Conditions	excess molar enthalpy [kcal/mol]
x1 = 0.0589	0.0696 ± 0.00382
x1 = 0.0809	0.0789 ± 0.0043
x1 = 0.1371	0.105 ± 0.0055
x1 = 0.648	0.117 ± 0.00621
x1 = 0.7042	0.105 ± 0.0055
x1 = 0.7619	0.0911 ± 0.00478
x1 = 0.8196	0.0722 ± 0.00406
x1 = 0.8715	0.0533 ± 0.00311
x1 = 0.9536	0.0241 ± 0.00167

CNC(C)=O [N-methylacetamide] + Cc1cc(C)cc(C)c1
Conditions	excess molar enthalpy [kcal/mol]
x1 = 0.1463	0.0817 ± 0.00454
x1 = 0.2448	0.0927 ± 0.00502
x1 = 0.3271	0.103 ± 0.0055
x1 = 0.4098	0.105 ± 0.0055
x1 = 0.4989	0.104 ± 0.0055
x1 = 0.5612	0.0978 ± 0.00526
x1 = 0.6649	0.0837 ± 0.00454
x1 = 0.7283	0.0758 ± 0.00406
x1 = 0.8071	0.0607 ± 0.00335
x1 = 0.884	0.0421 ± 0.00263

CNC(C)=O [N-methylacetamide] + Cc1ccccc1
Conditions	excess molar enthalpy [kcal/mol]
x1 = 0.1142	0.0619 ± 0.0043
x1 = 0.2405	0.0619 ± 0.0043
x1 = 0.2954	0.0571 ± 0.00406
x1 = 0.377	0.0528 ± 0.00382
x1 = 0.4002	0.0521 ± 0.00382
x1 = 0.4365	0.0478 ± 0.00359
x1 = 0.4708	0.0442 ± 0.00335
x1 = 0.5227	0.0428 ± 0.00335
x1 = 0.5843	0.039 ± 0.00311
x1 = 0.6502	0.0301 ± 0.00263
x1 = 0.7076	0.0253 ± 0.00239
x1 = 0.7798	0.0179 ± 0.00191
x1 = 0.9016	0.00741 ± 0.00143

CNC=O [N-methylformamide] + Cc1ccccc1
Conditions	excess molar enthalpy [kcal/mol]
x1 = 0.1531	0.0975 ± 0.00526
x1 = 0.1852	0.102 ± 0.0055
x1 = 0.2625	0.11 ± 0.00574
x1 = 0.3018	0.112 ± 0.00598
x1 = 0.3404	0.115 ± 0.00598
x1 = 0.3983	0.115 ± 0.00598
x1 = 0.4643	0.116 ± 0.00598
x1 = 0.4821	0.114 ± 0.00598
x1 = 0.5253	0.11 ± 0.00574
x1 = 0.5951	0.103 ± 0.0055
x1 = 0.6171	0.102 ± 0.0055
x1 = 0.645	0.0961 ± 0.00502
x1 = 0.7416	0.0765 ± 0.00406
x1 = 0.8178	0.0574 ± 0.00335
x1 = 0.9166	0.0304 ± 0.00191

CNC=O [N-methylformamide] + c1ccccc1
Conditions	excess molar enthalpy [kcal/mol]
x1 = 0.0011	0.00263 ± 0.000956
x1 = 0.0019	0.00454 ± 0.000956
x1 = 0.1401	0.081 ± 0.0043
x1 = 0.2247	0.0918 ± 0.00502
x1 = 0.2851	0.0968 ± 0.00526
x1 = 0.3412	0.0994 ± 0.00526
x1 = 0.372	0.101 ± 0.00526
x1 = 0.428	0.0997 ± 0.00526
x1 = 0.4525	0.0978 ± 0.00526
x1 = 0.5333	0.0927 ± 0.00502
x1 = 0.6012	0.0837 ± 0.00454
x1 = 0.6365	0.0796 ± 0.0043
x1 = 0.7237	0.065 ± 0.00359
x1 = 0.8274	0.0425 ± 0.00263
